Reference: patent US20220009920A1 (GB005, Inc., priority 2020, published 2022)

Assays:
Assay in all cases: Large panel kinase profiling
Type in all cases: biochemical
Conditions in all cases: 1 μM test article, 1 mM ATP
CHEK2/CHK2 = biological target: T1, CHEK2/CHK2 (Homo sapiens, UniProt O96017)
T1 construct: AssayQuant Technologies, Inc. (ran the panel)
Method in brief: (§1)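 Single-point profiling at 1 μM test article used 1 mM ATP. Phosphorylation was tracked by sensor fluorescence increase over time at 30° C., with readings each minute at excitation 360 nm and emission 485 nm.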

EPHB4 = biological target: T2, EPHB4 (Homo sapiens, UniProt P54760)
T2 sequence (P54760 16-987): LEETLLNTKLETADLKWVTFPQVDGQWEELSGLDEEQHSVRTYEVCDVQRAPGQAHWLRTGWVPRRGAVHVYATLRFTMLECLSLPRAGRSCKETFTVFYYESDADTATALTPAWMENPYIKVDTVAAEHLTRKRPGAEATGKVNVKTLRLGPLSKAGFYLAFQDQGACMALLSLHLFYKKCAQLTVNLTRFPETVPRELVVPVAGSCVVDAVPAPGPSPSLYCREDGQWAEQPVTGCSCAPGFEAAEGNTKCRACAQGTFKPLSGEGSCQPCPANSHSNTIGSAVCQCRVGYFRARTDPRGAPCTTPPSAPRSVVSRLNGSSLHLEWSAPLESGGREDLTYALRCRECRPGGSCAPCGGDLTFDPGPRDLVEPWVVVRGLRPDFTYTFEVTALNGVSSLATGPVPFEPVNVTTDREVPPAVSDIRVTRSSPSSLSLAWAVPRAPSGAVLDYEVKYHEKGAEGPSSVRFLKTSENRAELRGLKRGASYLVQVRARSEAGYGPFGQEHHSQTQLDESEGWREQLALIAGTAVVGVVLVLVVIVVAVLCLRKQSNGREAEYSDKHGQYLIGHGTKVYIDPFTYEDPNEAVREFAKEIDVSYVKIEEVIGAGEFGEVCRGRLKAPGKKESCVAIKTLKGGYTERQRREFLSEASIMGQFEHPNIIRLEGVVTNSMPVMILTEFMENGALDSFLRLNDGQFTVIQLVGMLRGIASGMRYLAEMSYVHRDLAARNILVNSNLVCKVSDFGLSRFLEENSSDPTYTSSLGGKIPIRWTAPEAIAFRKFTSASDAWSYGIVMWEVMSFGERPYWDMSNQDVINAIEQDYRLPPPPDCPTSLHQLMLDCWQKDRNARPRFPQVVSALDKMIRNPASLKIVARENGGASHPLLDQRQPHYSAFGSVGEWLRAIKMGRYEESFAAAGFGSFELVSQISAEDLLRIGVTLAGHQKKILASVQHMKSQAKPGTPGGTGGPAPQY
Method in brief: as §1

GRK1 = biological target: T3, GRK1 (Homo sapiens, UniProt Q15835)
T3 construct: AssayQuant Technologies, Inc. (service provider)
T3 sequence (Q15835 1-563): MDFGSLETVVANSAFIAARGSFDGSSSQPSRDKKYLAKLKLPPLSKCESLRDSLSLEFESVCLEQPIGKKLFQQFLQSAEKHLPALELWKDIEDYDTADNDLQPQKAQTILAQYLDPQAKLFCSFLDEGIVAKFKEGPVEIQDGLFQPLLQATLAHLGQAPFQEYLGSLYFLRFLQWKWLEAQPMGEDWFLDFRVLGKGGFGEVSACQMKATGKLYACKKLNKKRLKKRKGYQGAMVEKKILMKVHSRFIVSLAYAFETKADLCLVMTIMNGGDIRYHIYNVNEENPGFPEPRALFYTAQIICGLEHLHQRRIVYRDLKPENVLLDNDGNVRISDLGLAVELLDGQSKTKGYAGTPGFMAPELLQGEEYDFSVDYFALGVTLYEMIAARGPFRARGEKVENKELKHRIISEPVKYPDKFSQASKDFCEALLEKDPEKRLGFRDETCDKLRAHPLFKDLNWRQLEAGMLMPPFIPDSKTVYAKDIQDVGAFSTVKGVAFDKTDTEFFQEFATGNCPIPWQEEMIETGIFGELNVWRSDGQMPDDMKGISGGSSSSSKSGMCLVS
Method in brief: as §1

JAK3(JH1) = biological target: T4, JAK3(JH1) (Homo sapiens, UniProt P52333)
T4 construct: JAK3(JH1)
Method in brief: as §1

MAP3K7 = biological target: T5, MAP3K7 (Homo sapiens, UniProt O43318)
T5 construct: AssayQuant Technologies, Inc. (service provider)
T5 sequence (O43318 1-303 limits assumed): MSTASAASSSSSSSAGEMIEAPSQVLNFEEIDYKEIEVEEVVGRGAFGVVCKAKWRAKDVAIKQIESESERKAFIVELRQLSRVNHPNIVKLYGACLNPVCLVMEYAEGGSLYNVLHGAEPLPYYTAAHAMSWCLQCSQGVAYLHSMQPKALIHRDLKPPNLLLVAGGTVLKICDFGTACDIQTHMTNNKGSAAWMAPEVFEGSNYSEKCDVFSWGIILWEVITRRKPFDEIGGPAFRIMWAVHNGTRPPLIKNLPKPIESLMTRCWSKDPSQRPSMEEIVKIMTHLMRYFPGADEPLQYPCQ
Method in brief: as §1

PRKACG = PRKACG (Homo sapiens, UniProt P22612)
Method in brief: as §1

T4 sequence (P52333 822-1111 limits assumed, species assumed): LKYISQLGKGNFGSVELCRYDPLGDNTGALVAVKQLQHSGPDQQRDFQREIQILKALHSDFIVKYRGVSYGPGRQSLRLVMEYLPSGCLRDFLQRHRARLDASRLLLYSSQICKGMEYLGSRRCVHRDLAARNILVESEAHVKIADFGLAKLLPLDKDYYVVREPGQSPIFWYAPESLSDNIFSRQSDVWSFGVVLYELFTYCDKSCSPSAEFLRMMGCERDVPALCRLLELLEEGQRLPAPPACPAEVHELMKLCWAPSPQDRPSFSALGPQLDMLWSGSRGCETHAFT
T1 sequence (O96017 whole entry): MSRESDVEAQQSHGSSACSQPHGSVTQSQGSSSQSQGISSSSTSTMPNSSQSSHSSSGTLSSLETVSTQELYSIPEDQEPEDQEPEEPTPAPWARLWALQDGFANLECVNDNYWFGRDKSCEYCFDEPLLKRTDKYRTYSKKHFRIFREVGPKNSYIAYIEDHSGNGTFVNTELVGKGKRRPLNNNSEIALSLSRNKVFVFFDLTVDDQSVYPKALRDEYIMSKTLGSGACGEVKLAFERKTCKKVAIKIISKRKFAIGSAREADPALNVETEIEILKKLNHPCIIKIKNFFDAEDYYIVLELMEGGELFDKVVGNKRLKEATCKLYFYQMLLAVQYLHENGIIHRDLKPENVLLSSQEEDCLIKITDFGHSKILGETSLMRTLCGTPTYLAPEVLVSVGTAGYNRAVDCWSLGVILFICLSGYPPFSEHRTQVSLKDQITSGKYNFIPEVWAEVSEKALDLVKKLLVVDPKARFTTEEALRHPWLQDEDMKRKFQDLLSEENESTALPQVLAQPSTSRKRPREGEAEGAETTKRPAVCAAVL
Sequence of PRKACG (P22612 whole entry, species assumed): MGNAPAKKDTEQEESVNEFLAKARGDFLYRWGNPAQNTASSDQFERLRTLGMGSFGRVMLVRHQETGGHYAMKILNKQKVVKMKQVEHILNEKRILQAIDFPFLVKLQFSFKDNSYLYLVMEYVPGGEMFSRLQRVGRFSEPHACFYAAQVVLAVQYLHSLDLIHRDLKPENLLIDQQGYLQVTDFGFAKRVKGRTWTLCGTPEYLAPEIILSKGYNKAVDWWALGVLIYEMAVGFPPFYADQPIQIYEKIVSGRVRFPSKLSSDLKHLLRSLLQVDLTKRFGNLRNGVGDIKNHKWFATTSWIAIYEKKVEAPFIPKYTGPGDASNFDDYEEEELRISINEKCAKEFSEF

Structure (SMILES)	inhibition at 1 µM (CHEK2/CHK2)	inhibition at 1 µM (EPHB4)	inhibition at 1 µM (GRK1)	inhibition at 1 µM (JAK3(JH1))	inhibition at 1 µM (MAP3K7)	inhibition at 1 µM (PRKACG)
C=CC(=O)N1CCCC(c2c(F)cc(C(N)=O)c3[nH]c4c(c23)CCCCC4)C1 (single isomer, unassigned) [Compound 5-6]	0.6%	7%	16.4%	2%	-19.6%	4.2%
C=CC(=O)N1CCC[C@@H](c2c(F)cc(C(N)=O)c3[nH]c4c(c23)CC2(CC4)CC2)C1 [Compound 6-2, (S)-5-(1-acryloylpiperidin-3-yl)-6-fluoro-1,2,4,9-tetrahydrospiro[carbazole-3,1′-cyclopropane]-8-carboxamide]	-14.1%	7.4%	-46.1%	12.5%	10%	-27.2%
C=CC(=O)N1CCC[C@@H](c2c(F)cc(C(N)=O)c3[nH]c4c(c23)CCC4)C1 [Compound 10-2, (S)-8-(1-acryloylpiperidin-3-yl)-7-fluoro-1,2,3,4-tetrahydrocyclo-penta[b]indole-5-carboxamide]	-9.2%	-8.5%	-1.4%	2.4%	13.2%	-19.2%
